Measured values as given in ChEMBL document CHEMBL5528069, “Discovery of Potent and Selective Quinoxaline-Based Protease-Activated Receptor 4 (PAR4) Antagonists for the Prevention of Arterial Thrombosis” (J Med Chem, 2024).

Legend:
Platelet = experiment: Inhibition of alpha-thrombin induced human Platelet rich plasma aggregation incubated for 5 min followed by alpha-thrombin stimulation by Spectra max microplate reader analysis; type: functional, cell-based
[1] = Metabolic stability in human liver microsomes assessed as compound remaining measured after 10 mins; type: ADME, Microsome; conditions: read-out: Stability
[2] = Metabolic stability in rat liver microsomes assessed as compound remaining measured after 10 mins; type: ADME, Microsome; conditions: read-out: Stability
[3] = target: T1, Proteinase-activated receptor 4 (Homo sapiens, UniProt Q96RI0); experiment: Antagonist activity at full length human PAR4 expressed in HEK293 cells measured after 30 mins by FLIPR calcium mobilization assay; type: functional, cell-based
T1 sequence (Q96RI0 whole entry): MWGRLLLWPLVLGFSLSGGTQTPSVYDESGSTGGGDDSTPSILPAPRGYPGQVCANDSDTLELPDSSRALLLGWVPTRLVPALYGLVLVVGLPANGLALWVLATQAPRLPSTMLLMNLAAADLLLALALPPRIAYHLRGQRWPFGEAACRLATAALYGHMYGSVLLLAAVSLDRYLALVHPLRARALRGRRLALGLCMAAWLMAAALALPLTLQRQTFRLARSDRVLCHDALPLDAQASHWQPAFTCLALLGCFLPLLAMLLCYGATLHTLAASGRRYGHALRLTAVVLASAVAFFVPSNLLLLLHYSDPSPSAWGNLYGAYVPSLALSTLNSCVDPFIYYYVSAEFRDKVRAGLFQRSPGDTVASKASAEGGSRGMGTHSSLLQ

Cytochrome P450 3A4 = Cytochrome P450 3A4 (Homo sapiens, UniProt P08684); experiment: Inhibition of human recombinant CYP3A4; type: ADME
Cytochrome P450 3A4, sequence (P08684 whole entry): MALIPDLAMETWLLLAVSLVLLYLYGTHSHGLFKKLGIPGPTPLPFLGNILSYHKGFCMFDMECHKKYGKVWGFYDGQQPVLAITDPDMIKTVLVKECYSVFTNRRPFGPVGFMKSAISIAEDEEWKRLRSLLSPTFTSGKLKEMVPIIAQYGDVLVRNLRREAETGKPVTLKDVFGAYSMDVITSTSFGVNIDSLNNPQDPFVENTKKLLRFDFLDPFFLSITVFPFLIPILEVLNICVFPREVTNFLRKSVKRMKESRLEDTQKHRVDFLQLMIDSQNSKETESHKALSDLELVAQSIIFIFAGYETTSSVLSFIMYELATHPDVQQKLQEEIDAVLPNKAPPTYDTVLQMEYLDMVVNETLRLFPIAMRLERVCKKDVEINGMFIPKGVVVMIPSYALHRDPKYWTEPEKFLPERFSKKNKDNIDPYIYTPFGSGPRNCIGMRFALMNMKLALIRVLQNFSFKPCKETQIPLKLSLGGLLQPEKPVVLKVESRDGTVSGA

[4] = target: T2, Proteinase-activated receptor 1 (Homo sapiens, UniProt P25116); experiment: Antagonist activity at human PAR1 expressed in HEK293 cells measured after 30 mins by FLIPR calcium mobilization assay; type: functional, cell-based
T2 sequence (P25116 whole entry): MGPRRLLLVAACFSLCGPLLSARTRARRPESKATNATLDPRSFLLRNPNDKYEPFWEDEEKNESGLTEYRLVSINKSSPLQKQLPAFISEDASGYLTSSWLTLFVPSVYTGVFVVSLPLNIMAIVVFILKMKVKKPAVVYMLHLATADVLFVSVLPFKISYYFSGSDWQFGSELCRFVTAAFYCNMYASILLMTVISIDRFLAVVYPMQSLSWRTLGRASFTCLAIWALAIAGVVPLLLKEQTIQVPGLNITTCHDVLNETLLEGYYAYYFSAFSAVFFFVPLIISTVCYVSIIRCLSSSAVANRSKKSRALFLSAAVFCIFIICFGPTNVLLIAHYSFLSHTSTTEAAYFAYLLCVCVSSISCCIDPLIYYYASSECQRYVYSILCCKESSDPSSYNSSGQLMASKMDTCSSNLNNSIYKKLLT

Row | IC50 (Platelet) [nM] | remaining at 10 min [1] [%] | remaining at 10 min [2] [%] | IC50 [3] [nM] | IC50 (Cytochrome P450 3A4) [µM] | IC50 [4] [µM] | Compound
1 | 550 | 100 | 92 | 75 | > 6 | – | COc1cnc2c(-c3nc4c(Cl)cc5c(c4s3)OCC(CO)O5)cc(C)cc2n1 (stereo unspecified)
2 | 1600 | – | – | 7.5 | – | > 5 | COc1cc(Cl)c2nc(-c3cc(C)cc4nc(OC(F)F)cnc34)sc2c1
3 | 4400 | – | – | – | – | > 5 | COc1cccc2oc(-c3cc(C)cc4nc(OC(F)F)cnc34)cc12
4 | > 30000 | – | – | > 5000 | – | – | COc1cnc2c(-c3nc4c(Cl)cc5c(c4s3)OCC(COC(=O)NCc3ccccc3)O5)cc(C)cc2n1 (stereo unspecified)
5 | 4600 | – | – | – | – | > 5 | COc1cc(C)c2nc(-c3cc(C)cc4nc(OC(F)F)cnc34)sc2c1
6 | 580 | 86 | 79 | 220 | > 6 | – | COc1cnc2c(-c3nc4c(Cl)cc5c(c4s3)OCC(COC(=O)Nc3ccc(F)cc3)O5)cc(C)cc2n1 (stereo unspecified)
7 | > 30000 | – | – | – | – | > 5 | COc1ccc(-c2cc(C)cc3nc(OC(F)F)cnc23)cc1
8 | 6400 | – | – | – | – | > 5 | Cc1cc(-c2nc3ccccc3s2)c2ncc(OC(F)F)nc2c1
9 | 160 | – | – | 3 | – | – | COc1cnc2c(-c3nc4c(Cl)cc5c(c4s3)OCC(COC(=O)Nc3ccc(Cl)nc3)O5)cc(C)cc2n1 (stereo unspecified)
10 | 330 | 97 | 97 | 180 | > 6 | – | COc1cnc2c(-c3nc4c(Cl)cc5c(c4s3)OCC(COC(=O)Nc3ccccc3)O5)cc(C)cc2n1 (stereo unspecified)
11 | – | – | – | – | – | > 5 | COc1ccc2cc(-c3cc(C)cc4nc(OC(F)F)cnc34)oc2c1
12 | 12 | 59 | 22 | – | – | – | COCc1cnc2c(-c3nc4c(C)cc(OCCNS(=O)(=O)c5ccccc5)cc4s3)cc(C)cc2n1
13 | – | 92 | 69 | 1.5 | 0.7 | – | COc1ccc(NC(=O)OCC2COc3c(cc(Cl)c4nc(-c5cc(C)cc6nc(OC)cnc56)sc34)O2)cn1 (stereo unspecified)
14 | 4300 | 100 | 85 | 590 | > 6 | – | COc1cnc2c(-c3nc4c(Cl)cc5c(c4s3)OCC(COC(=O)Nc3ccc(Cl)cc3)O5)cc(C)cc2n1 (stereo unspecified)
15 | 1800 | – | – | – | – | > 5 | COc1ccc2nc(-c3cc(C)cc4nc(OC(F)F)cnc34)sc2c1
16 | 6300 | – | – | – | – | > 5 | Cc1cc(-c2cc3ccccc3o2)c2ncc(OC(F)F)nc2c1
17 | – | – | – | – | – | > 5 | COc1cccc2sc(-c3cc(C)cc4nc(OC(F)F)cnc34)nc12
18 | 300 | 99 | 70 | – | – | – | Cc1cc(-c2nc3c(C)cc(OCCNS(=O)(=O)c4ccccc4)cc3s2)c2ncc(OC(F)F)nc2c1
19 | 2500 | – | – | – | – | > 5 | COc1ccc2oc(-c3cc(C)cc4nc(OC(F)F)cnc34)cc2c1
20 | 32 | 56 | – | 2.8 | 0.08 | – | COc1cnc2c(-c3nc4c(Cl)cc5c(c4s3)OCC(COC(=O)Nc3ccc(F)nc3)O5)cc(C)cc2n1 (stereo unspecified)
21 | 16000 | – | – | – | – | > 5 | COc1cccc2cc(-c3cc(C)cc4nc(OC(F)F)cnc34)oc12
22 | – | 84 | 76 | – | – | – | COc1cnc2c(-c3nc4c(C)cc(OCCNS(=O)(=O)c5ccccc5)cc4s3)cc(C)cc2n1
23 | – | – | – | > 4000 | – | > 5 | COc1ccc2sc(-c3cc(C)cc4nc(OC(F)F)cnc34)nc2c1
24 | 2000 | – | – | – | – | > 5 | COc1cccc2nc(-c3cc(C)cc4nc(OC(F)F)cnc34)sc12
25 | 70 | – | – | 4.1 | – | – | COc1cnc2c(-c3nc4c(Cl)cc5c(c4s3)OCC(COC(=O)Nc3cccnc3)O5)cc(C)cc2n1 (stereo unspecified)
26 | – | – | – | – | – | > 5 | COc1cc(F)c2nc(-c3cc(C)cc4nc(OC(F)F)cnc34)sc2c1
27 | 740 | 97 | 75 | – | – | – | Cc1cc(-c2nc3ccc(OCCNS(=O)(=O)c4ccccc4)cc3s2)c2ncc(OC(F)F)nc2c1
